Converted amounts (≈) assume the structure as drawn.
Experiments:
Format in all cases: cell-based
[1] = test system: Streptococcus faecalis ATCC 10541; test: MIC, two-fold dilution method, Streptococcus faecalis ATCC 10541; conditions: 10^6 CFU per ml, 37° C., 18 to 20 hours; for Antibacterial Activity (MIC): Muller Hinton Broth; for MIC: Enterococcus faecalis, ATCC10541, Muller Hinton Broth, read-out: Antibacterial Activity (MIC)
Outline: (§1)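 First, compound is diluted two-fold serially into Mueller Hinton Broth; next, test strain at 10^6 CFU/ml is added; finally, incubation runs 18–20 h at 37° C. before MIC determination.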

[2] = test system: Esherichia coli ATCC 25922; test: MIC, two-fold dilution method, Esherichia coli ATCC 25922; conditions: Muller Hinton Broth, 10^6 CFU per ml, 37° C., 18 to 20 hours; for MIC: read-out: Antibacterial Activity (MIC)
Method: In order to illustrate the usefulness of the invented compounds, the minimal inhibitory concentrations-(MIC) thereof against standard strains were determined and compared with Cefotaxime, a known compound. Also, the in vitro antibacterial activity was determined by a two-fold dilution method as described below: That is, the two-fold serial dilutions of the compound were made and dispersed in Muller Hinton Broth medium. Standard test strain which had the 10^6 CFU per ml was inoculated on the medium, and was incubated at 37° C. for 18 to 20 hours.

[3] = test system: Bacillus subtilis ATCC 6633; test: MIC, two-fold dilution method, Bacillus subtilis ATCC 6633; conditions: 10^6 CFU per ml, 37° C., 18 to 20 hours; for Antibacterial Activity (MIC): Muller Hinton Broth; for MIC: ATCC6633, Muller Hinton Broth, read-out: Antibacterial Activity (MIC)
Outline: as §1

[4] = test system: Staphylococcus aureus ATCC 65389; test: MIC, two-fold dilution method, Staphylococcus aureus ATCC 65389; conditions: 10^6 CFU per ml, 37° C., 18 to 20 hours; for Antibacterial Activity (MIC): Muller Hinton Broth; for MIC: ATCC65389, Muller Hinton Broth, read-out: Antibacterial Activity (MIC)
Outline: as §1

[5] = test system: Pseudomonas aeurginosa NCTC 10490; test: MIC, two-fold dilution method, Pseudomonas aeurginosa NCTC 10490; conditions: 10^6 CFU per ml, 37° C., 18 to 20 hours; for Antibacterial Activity (MIC): Muller Hinton Broth; for MIC: NCTC10490, Muller Hinton Broth, read-out: Antibacterial Activity (MIC)
Outline: as §1

[6] = test system: Klebsiella pneumoniae ATCC 10031; test: MIC, two-fold dilution method, Klebsiella pneumoniae ATCC 10031; conditions: 10^6 CFU per ml, 37° C., 18 to 20 hours; for Antibacterial Activity (MIC): Muller Hinton Broth; for MIC: ATCC10031, Muller Hinton Broth, read-out: Antibacterial Activity (MIC)
Outline: as §1

[7] = test system: Staphylococcus epidermidis ATCC 12228; test: MIC, two-fold dilution method, Staphylococcus epidermidis ATCC 12228; conditions: 10^6 CFU per ml, 37° C., 18 to 20 hours; for Antibacterial Activity (MIC): Muller Hinton Broth; for MIC: ATCC12228, Muller Hinton Broth, read-out: Antibacterial Activity (MIC)
Outline: as §1

## CO/N=C(\C(=O)NC1C(=O)N2C(C(=O)[O-])=C(CSc3cc[n+](C4CC4)c4cc(-n5cnc(C)c5)c(F)cc34)CSC12)c1csc(N)n1 (stereo not drawn) [Compound I-20, 7-[(Z)-2-(2-aminothiazol-4-yl)-2-(methoxyimino)acetamido]-3-[1-cyclopropyl-6-fluoro-7-(4-methylimidazolyl)quinolinium-4-yl]thiomethyl-3-cephem-4-carboxylate]
[1]
  Antibacterial Activity (MIC): 0.2 µg/mL
[2]
  Antibacterial Activity (MIC): 1.56 µg/mL
[3]
  Antibacterial Activity (MIC): 0.2 µg/mL
[4]
  Antibacterial Activity (MIC): 0.78 µg/mL
[5]
  Antibacterial Activity (MIC): 1.56 µg/mL
[6]
  Antibacterial Activity (MIC): 0.1 µg/mL
[7]
  Antibacterial Activity (MIC): 0.39 µg/mL

## C=CCO/N=C(\C(=O)NC1C(=O)N2C(C(=O)[O-])=C(CSc3cc[n+](C)c4cc(N5CCNCC5)c(F)cc34)CS[C@H]12)c1csc(N)n1 (stereo partly drawn) [Compound I-21, 7-[(Z)-2-(2-aminothiazol-4-yl)-2-(allyloxyimino)acetamido]-3-(1-methyl-6-fluoro-7-piperazinylquinolinium-4-yl)thiomethyl-3-cephem-4-carboxylate]
[1]
  MIC: 0.025 µg/mL (≈ 0.0358 µM)
[2]
  MIC: 3.13 µg/mL (≈ 4.48 µM)
[3]
  MIC: 0.39 µg/mL (≈ 0.558 µM)
[4]
  MIC: 0.2 µg/mL (≈ 0.286 µM)
[5]
  MIC: 6.25 µg/mL (≈ 8.94 µM)
[6]
  MIC: 0.1 µg/mL (≈ 0.143 µM)
[7]
  MIC: 0.1 µg/mL (≈ 0.143 µM)

## C=CCO/N=C(\C(=O)NC1C(=O)N2C(C(=O)[O-])=C(CSc3cc[n+](C)c4cc(N5CCN(C)CC5)c(F)cc34)CSC12)c1csc(N)n1 (stereo not drawn) [Compound I-22, 7-[(Z)-2-(2-aminothiazol-4-yl)-2-(allyloxyimino)acetamido]-3-[1-methyl-6-fluoro-7-(N-methylpiperazinyl)quinolinium-4-yl]thiomethyl-3-cephem-4-carboxylate]
[1]
  MIC: 0.013 µg/mL (≈ 0.0182 µM)
[2]
  MIC: 6.25 µg/mL (≈ 8.77 µM)
[3]
  MIC: 0.39 µg/mL (≈ 0.547 µM)
[4]
  MIC: 0.2 µg/mL (≈ 0.281 µM)
[5]
  MIC: 3.13 µg/mL (≈ 4.39 µM)
[6]
  MIC: 0.39 µg/mL (≈ 0.547 µM)
[7]
  MIC: 0.1 µg/mL (≈ 0.14 µM)

## C=CCO/N=C(\C(=O)NC1C(=O)N2C(C(=O)[O-])=C(CSc3cc[n+](C)c4cc(N5CCN(CC)CC5)c(F)cc34)CSC12)c1csc(N)n1 (stereo not drawn) [Compound I-23, 7-[(Z)-2-(2-aminothiazol-4-yl)-2-(allyloxyimino)acetamido]-3-[1-methyl-6-fluoro-7-(1-ethylpiperazinyl)quinolinium-4-yl]thiomethyl-3-cephem-4-carboxylate]
[1]
  MIC: 0.2 µg/mL (≈ 0.275 µM)
[2]
  MIC: 1.56 µg/mL (≈ 2.15 µM)
[3]
  MIC: 0.2 µg/mL (≈ 0.275 µM)
[4]
  MIC: 0.1 µg/mL (≈ 0.138 µM)
[5]
  MIC: 1.56 µg/mL (≈ 2.15 µM)
[6]
  MIC: 0.2 µg/mL (≈ 0.275 µM)
[7]
  MIC: 0.1 µg/mL (≈ 0.138 µM)

## C=CCO/N=C(\C(=O)NC1C(=O)N2C(C(=O)[O-])=C(CSc3cc[n+](C)c4cc(N5CCNCC5C)c(F)cc34)CS[C@H]12)c1csc(N)n1 (stereo partly drawn) [Compound I-24, 7-[(Z)-2-(2-aminothiazol-4-yl)-2-(allyloxyimino)acetamido]-3-[1-methyl-6-fluoro-7-(2-methylpiperazinyl)quinolinium-4-yl]thiomethyl-3-cephem-4-carboxylate]
[1]
  Antibacterial Activity (MIC): 0.1 µg/mL
[2]
  Antibacterial Activity (MIC): 1.56 µg/mL
[3]
  Antibacterial Activity (MIC): 0.2 µg/mL
[4]
  Antibacterial Activity (MIC): 0.1 µg/mL
[5]
  Antibacterial Activity (MIC): 0.78 µg/mL
[6]
  Antibacterial Activity (MIC): 0.2 µg/mL
[7]
  Antibacterial Activity (MIC): 0.1 µg/mL

## C=CCO/N=C(\C(=O)NC1C(=O)N2C(C(=O)[O-])=C(CSc3cc[n+](C4CC4)c4cc(N5CCNCC5)c(F)cc34)CS[C@H]12)c1csc(N)n1 (stereo partly drawn) [Compound I-25, 7-[(Z)-2-(2-aminothiazol-4-yl)-2-(allyloxyimino)acetamido]-3-(1-cyclopropyl-6-fluoro-7-piperazinylquinolinium-4-yl)thiomethyl-3-cephem-4-carboxylate]
[1]
  MIC: 0.2 µg/mL (≈ 0.276 µM)
[2]
  MIC: 6.25 µg/mL (≈ 8.62 µM)
[3]
  MIC: 0.2 µg/mL (≈ 0.276 µM)
[4]
  MIC: 0.78 µg/mL (≈ 1.08 µM)
[5]
  MIC: 0.39 µg/mL (≈ 0.538 µM)
[6]
  MIC: 0.39 µg/mL (≈ 0.538 µM)
[7]
  MIC: 0.78 µg/mL (≈ 1.08 µM)

## C=CCO/N=C(\C(=O)NC1C(=O)N2C(C(=O)[O-])=C(CSc3cc[n+](C4CC4)c4cc(N5CCN(C)CC5)c(F)cc34)CSC12)c1csc(N)n1 (stereo not drawn) [Compound I-26, 7-[(Z)-2-(2-aminothiazol-4-yl)-2-(allyloxyimino)acetamido]-3-[1-cyclopropyl-6-fluoro-7-(N-methylpiperazinyl)quinolinium-4-yl]thiomethyl-3-cephem-4-carboxylate]
[1]
  MIC: 0.2 µg/mL (≈ 0.271 µM)
[2]
  MIC: 6.25 µg/mL (≈ 8.46 µM)
[3]
  MIC: 0.1 µg/mL (≈ 0.135 µM)
[4]
  MIC: 0.39 µg/mL (≈ 0.528 µM)
[5]
  MIC: 0.39 µg/mL (≈ 0.528 µM)
[6]
  MIC: 0.2 µg/mL (≈ 0.271 µM)
[7]
  MIC: 1.56 µg/mL (≈ 2.11 µM)

## C=CCO/N=C(\C(=O)NC1C(=O)N2C(C(=O)[O-])=C(CSc3cc[n+](CC)c4cc(N5CCNCC5)c(F)cc34)CS[C@H]12)c1csc(N)n1 (stereo partly drawn) [Compound I-29, 7-[(Z)-2-(2-aminothiazol-4-yl)-2-(allyloxyimino)acetamido]-3-(1-ethyl-6-fluoro-7-piperazinylquinolinium-4-yl)thiomethyl-3-cephem-4-carboxylate]
[1]
  MIC: 0.39 µg/mL (≈ 0.547 µM)
[2]
  MIC: 1.56 µg/mL (≈ 2.19 µM)
[3]
  MIC: 0.39 µg/mL (≈ 0.547 µM)
[4]
  MIC: 0.78 µg/mL (≈ 1.09 µM)
[5]
  MIC: 3.13 µg/mL (≈ 4.39 µM)
[6]
  MIC: 0.39 µg/mL (≈ 0.547 µM)
[7]
  MIC: 0.78 µg/mL (≈ 1.09 µM)

## C=CCO/N=C(\C(=O)NC1C(=O)N2C(C(=O)[O-])=C(CSc3cc[n+](CC)c4cc(N5CCN(C)CC5)c(F)cc34)CSC12)c1csc(N)n1 (stereo not drawn) [Compound I-30, 7-[(Z)-2-(2-aminothiazol-4-yl)-2-(allyloxyimino)acetamido]-3-[1-ethyl-6-fluoro-7-(N-methylpiperazinyl)quinolinium-4-yl]thiomethyl-3-cephem-4-carboxylate]
[1]
  MIC: 0.39 µg/mL (≈ 0.537 µM)
[2]
  MIC: 3.13 µg/mL (≈ 4.31 µM)
[3]
  MIC: 0.39 µg/mL (≈ 0.537 µM)
[4]
  MIC: 1.56 µg/mL (≈ 2.15 µM)
[5]
  MIC: 6.25 µg/mL (≈ 8.6 µM)
[6]
  MIC: 0.78 µg/mL (≈ 1.07 µM)
[7]
  MIC: 0.78 µg/mL (≈ 1.07 µM)

## C=CCO/N=C(\C(=O)NC1C(=O)N2C(C(=O)[O-])=C(CSc3cc[n+](CC)c4cc(N5CCN(CC)CC5)c(F)cc34)CSC12)c1csc(N)n1 (stereo not drawn) [Compound I-31]
[1]
  MIC: 0.39 µg/mL (≈ 0.526 µM)
[2]
  MIC: 0.78 µg/mL (≈ 1.05 µM)
[3]
  MIC: 0.2 µg/mL (≈ 0.27 µM)
[4]
  MIC: 0.39 µg/mL (≈ 0.526 µM)
[5]
  MIC: 0.78 µg/mL (≈ 1.05 µM)
[6]
  MIC: 0.39 µg/mL (≈ 0.526 µM)
[7]
  MIC: 0.78 µg/mL (≈ 1.05 µM)

## C=CCO/N=C(\C(=O)NC1C(=O)N2C(C(=O)[O-])=C(CSc3cc[n+](CC)c4cc(N5CCNCC5C)c(F)cc34)CS[C@H]12)c1csc(N)n1 (stereo partly drawn) [Compound I-32, 7-[(Z)-2-(2-aminothiazol-4-yl)-2-(allyloxyimino)acetamido]-3-[1-ethyl-6-fluoro-7-(2-methylpiperazinyl)quinolinium-4-yl]thiomethyl-3-cephem-4-carboxylate]
[1]
  Antibacterial Activity (MIC): 0.39 µg/mL
[2]
  Antibacterial Activity (MIC): 0.78 µg/mL
[3]
  Antibacterial Activity (MIC): 0.39 µg/mL
[4]
  Antibacterial Activity (MIC): 0.39 µg/mL
[5]
  Antibacterial Activity (MIC): 1.56 µg/mL
[6]
  Antibacterial Activity (MIC): 0.39 µg/mL
[7]
  Antibacterial Activity (MIC): 0.78 µg/mL

## C=CCO/N=C(\C(=O)NC1C(=O)N2C(C(=O)[O-])=C(CSc3cc[n+](CC=C)c4cc(N5CCNCC5)c(F)cc34)CS[C@H]12)c1csc(N)n1 (stereo partly drawn) [Compound I-33, 7-[(Z)-2-(2-aminothiazol-4-yl)-2-(allyloxyimino)acetamido]-3-(1-allyl-6-fluoro-7-piperazinylquinolinium-4-yl)thiomethyl-3-cephem-4-carboxylate]
[1]
  MIC: 0.39 µg/mL (≈ 0.538 µM)
[2]
  MIC: 3.13 µg/mL (≈ 4.32 µM)
[3]
  MIC: 0.78 µg/mL (≈ 1.08 µM)
[4]
  MIC: 0.78 µg/mL (≈ 1.08 µM)
[5]
  MIC: 3.13 µg/mL (≈ 4.32 µM)
[6]
  MIC: 1.56 µg/mL (≈ 2.15 µM)
[7]
  MIC: 1.56 µg/mL (≈ 2.15 µM)

Source: patent publication US5663331A, “Cephalosporin compounds” (Il-Dong Pharm. Co., Ltd., priority 1992, dated 1997)
